Reference: US20230381157A1, “RIFABUTIN FOR THE TREATMENT OF ACINETOBACTER BAUMANNII” (University of Southern California, priority 2018, published 2023)
Read-outs that look alike come from different tables or passages of the source.

Legend:
[1] = system: A. baumannii HUMC1; experiment: MIC, broth microdilution in MHII, RPMI or modified media; type: cell-based, Acinetobacter baumannii; conditions: inhibitor alone
[2] = system: HEK293T; experiment: Specificity: mammalian cell cytotoxicity / inhibition of bacteria growth (CC50/IC50)
[3] = system: A. baumannii HUMC1; experiment: IC50 dose response, inhibition of bacterial growth (BacTiter-Glo viability); type: cell-based, Acinetobacter baumannii; conditions: Acinetobacter baumannii, 11-point dose response, read-out: IC50
[4] = system: A. baumannii ATCC 17978; experiment: as above; type: cell-based, Acinetobacter baumannii; conditions: Acinetobacter baumannii, 11-point dose response, read-out: IC50
[5] = IC50 vs A. baumannii ATCC 17978, RPMI + 50% serum
[6] = IC50 vs A. baumannii ATCC 17978, RPMI alone
[7] = IC50 vs A. baumannii HUMC1, RPMI + 50% serum
[8] = IC50 vs A. baumannii HUMC1, RPMI alone
[9] = HUMC1, 24 h, HUMC1, RPMI + 50% Serum
[10] = ATCC17978, 24 h, ATCC 17978, RPMI + 50% Serum
[11] = ATCC17978, ATCC 17978, RPMI + 50% Serum

IC50 [3, 9] | IC50 ([3]; HUMC1, HUMC1, RPMI + 50% Serum) | IC50 ([3]; HUMC1, HUMC1, RPMI) | IC50 [4, 10] | IC50 [4, 11] | IC50 ([4]; ATCC17978, ATCC 17978, RPMI) | MIC ([1]; Acinetobacter baumannii, HUMC1, HUMC1, read-out: MIC of efflux pump inhibitor alone) | Compound | MIC of efflux pump inhibitor alone ([1]; HUMC1) | Specificity HEK293T (CC50/IC50) [2, 5] | Specificity HEK293T (CC50/IC50) [2, 6] | Specificity HEK293T (CC50/IC50) [2, 7] | Specificity HEK293T (CC50/IC50) [2, 8]
– | – | – | – | – | – | – | N#CC(C#N)=NNc1cccc(Cl)c1 [CCCP] | 8 µg/mL | – | – | – | –
10.9 µM | 10.9 µM | 10 µM | 28.1 µM | 28.1 µM | 7.59 µM | – | CO[C@H]1/C=C/O[C@@]2(C)Oc3c(C)c(O)c4c(O)c(c(/C=N/N5CCN(C6CCCC6)CC5)c(O)c4c3C2=O)NC(=O)/C(C)=C\C=C\[C@H](C)[C@H](O)[C@@H](C)[C@@H](O)[C@@H](C)[C@H](OC(C)=O)[C@@H]1C [rifapentine] | – | 1.222 | 4.517 | 3.148 | 3.413
35.4 µM | 35.4 µM | 20.8 µM | 33 µM | 33 µM | 28.4 µM | – | CO[C@H]1/C=C/O[C@@]2(C)Oc3c(C)c(O)c4c(O)c(cc(O)c4c3C2=O)NC(=O)/C(C)=C\C=C\[C@H](C)[C@H](O)[C@@H](C)[C@@H](O)[C@@H](C)[C@H](OC(C)=O)[C@@H]1C [rifamycin] | – | 0.412 | 0.478 | 0.383 | 0.654
– | – | – | – | – | – | 64 µg/mL | CSc1ccc2c(c1)N(CCC1CCCCN1C)c1ccccc1S2 (stereo not shown) [thioridazine] | – | – | – | – | –
